Values of other authors in patent US9375441B2, “Lactulose for bowel evacuation” (Cumberland Pharmaceuticals, priority 2011, dated 2016).

Columns and labels:
[1] = not given; remark: listed apart in the source
[2] = system: patients at increased risk for colorectal cancer
[3] = system: patients with a history of chronic constipation

- state in which oral doses reach the colon (no hydrolysing enzyme in human gastrointestinal tissue): virtually unchanged
- absorption from the gastrointestinal tract (oral): poorly absorbed
- solubility in water [1]: freely soluble
- patients with diarrhea sometime during the bowel preparation, % ([2]; 12 g lactulose powder once per day from 48 hours before MR colonography): 38%
- patients with diarrhea sometime during the bowel preparation, number ([2]; 12 g lactulose powder once per day from 48 hours before MR colonography, low-fiber diet, oral gadolinium contrast): 77
- patients in whom diarrhea occurred just prior to imaging, number ([2]; of the 77 patients with diarrhea): 48
SMILES: OC[C@H]1O[C@@H](O[C@@H]2[C@@H](CO)O[C@](O)(CO)[C@H]2O)[C@H](O)[C@@H](O)[C@H]1O [lactulose, 4-O-b-D-Galactopyranosyl-D-fructofuranose]
- number of bowel movements per day and number of days on which bowel movements occur [3]: increases
